According to the supplement of paper PMC12463676, “Small-molecule dissolution of stress granules by redox modulation benefits ALS models” (Nature Chemical Biology, 2025):

How the values were obtained:
[1] = compound: NC(=O)CCCCC1CCSS1 [lipoamide]; assay: thermal stability z-score vs DMSO; higher = more thermally stabilized by treatment; conditions: HeLa, lipoamide concentration 100 µM
Method: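 Cellular thermal proteome profiling in HeLa cells. Cells were treated with 100 µM lipoamide for 1 h, with or without 1 mM arsenate for a further 1 h, then heated to ten temperatures (37-66.3 °C), and soluble protein was quantified by TMT mass spectrometry relative to 0.1% DMSO controls. The thermal stability score (sum of log2 fold changes minus the abundance score) was transformed to a z-score; mean of n = 3 experiments.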

[2] = compound: O=[As]([O-])(O)O.[K+] [potassium arsenate]; assay: as above; conditions: HeLa; arsenate concentration 1 mM
Method: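 Cellular thermal proteome profiling in HeLa cells treated with 1 mM arsenate for 1 h (DMSO pretreatment), heated to ten temperatures (37-66.3 °C). Soluble protein was quantified by TMT mass spectrometry relative to DMSO controls; the thermal stability score was transformed to a z-score; mean of n = 3 experiments.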

[3] = arsenate co-treatment: 1 mM arsenate 1 h
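Also: each temperature applied for 3 min, abundance score taken as mean log2 fold change at the two lowest temperatures, z-score obtained by mean subtraction and division by SD.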

Chain of UniProt Q9NR33 (Q9NR33 whole entry): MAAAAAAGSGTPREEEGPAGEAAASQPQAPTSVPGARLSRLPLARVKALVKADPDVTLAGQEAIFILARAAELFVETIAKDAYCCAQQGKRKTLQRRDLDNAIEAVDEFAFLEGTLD
Chain of UniProt Q96CX2 (Q96CX2 whole entry): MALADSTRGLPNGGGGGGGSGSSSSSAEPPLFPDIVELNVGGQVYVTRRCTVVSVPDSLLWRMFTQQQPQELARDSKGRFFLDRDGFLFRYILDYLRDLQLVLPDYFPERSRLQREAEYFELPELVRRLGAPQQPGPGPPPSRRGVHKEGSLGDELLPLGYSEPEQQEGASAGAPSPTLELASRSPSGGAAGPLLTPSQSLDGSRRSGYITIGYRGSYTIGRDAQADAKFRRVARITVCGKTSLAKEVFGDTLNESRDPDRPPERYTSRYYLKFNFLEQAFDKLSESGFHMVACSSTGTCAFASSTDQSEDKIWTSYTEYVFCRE
Chain of UniProt O43674 (O43674 whole entry): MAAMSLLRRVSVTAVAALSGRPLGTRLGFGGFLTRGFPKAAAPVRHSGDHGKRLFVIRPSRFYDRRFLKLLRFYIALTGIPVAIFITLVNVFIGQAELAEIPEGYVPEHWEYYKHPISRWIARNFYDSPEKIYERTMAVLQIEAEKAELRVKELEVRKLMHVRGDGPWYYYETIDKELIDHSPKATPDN
Chain of UniProt Q7KZN9 (Q7KZN9 whole entry): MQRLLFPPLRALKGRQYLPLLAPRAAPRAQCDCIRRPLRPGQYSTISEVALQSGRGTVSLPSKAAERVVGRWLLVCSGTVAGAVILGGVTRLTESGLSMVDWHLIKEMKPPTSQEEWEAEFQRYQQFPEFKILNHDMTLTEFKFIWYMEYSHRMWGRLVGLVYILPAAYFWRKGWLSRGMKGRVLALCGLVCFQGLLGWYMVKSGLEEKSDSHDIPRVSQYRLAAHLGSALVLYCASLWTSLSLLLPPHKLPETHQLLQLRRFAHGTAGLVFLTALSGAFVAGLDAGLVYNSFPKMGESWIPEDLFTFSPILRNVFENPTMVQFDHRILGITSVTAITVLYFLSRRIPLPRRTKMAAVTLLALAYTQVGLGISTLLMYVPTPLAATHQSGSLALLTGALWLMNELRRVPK
Chain of UniProt Q96IW7 (Q96IW7 whole entry): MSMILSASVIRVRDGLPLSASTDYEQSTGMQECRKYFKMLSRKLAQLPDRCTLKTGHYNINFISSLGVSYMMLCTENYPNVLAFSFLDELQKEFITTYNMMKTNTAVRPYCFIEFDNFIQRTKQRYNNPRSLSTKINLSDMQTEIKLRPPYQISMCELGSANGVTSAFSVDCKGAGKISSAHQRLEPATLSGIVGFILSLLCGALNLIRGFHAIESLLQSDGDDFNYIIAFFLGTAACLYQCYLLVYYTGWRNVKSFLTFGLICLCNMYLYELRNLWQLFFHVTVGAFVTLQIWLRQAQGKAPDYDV
Chain of UniProt Q9P2R7 (Q9P2R7 whole entry): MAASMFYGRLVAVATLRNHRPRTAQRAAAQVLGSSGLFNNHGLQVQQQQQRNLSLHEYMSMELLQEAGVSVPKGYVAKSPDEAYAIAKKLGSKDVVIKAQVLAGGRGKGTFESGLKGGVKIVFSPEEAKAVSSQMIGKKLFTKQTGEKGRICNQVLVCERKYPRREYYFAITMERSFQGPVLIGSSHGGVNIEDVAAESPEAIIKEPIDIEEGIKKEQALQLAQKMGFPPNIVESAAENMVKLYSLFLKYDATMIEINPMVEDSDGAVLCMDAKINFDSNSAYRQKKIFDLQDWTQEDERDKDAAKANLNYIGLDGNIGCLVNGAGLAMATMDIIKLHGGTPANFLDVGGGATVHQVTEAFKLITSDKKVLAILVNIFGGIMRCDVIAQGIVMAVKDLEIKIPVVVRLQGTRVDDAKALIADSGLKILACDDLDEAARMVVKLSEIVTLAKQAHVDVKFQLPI
Chain of UniProt Q9UET6 (Q9UET6 whole entry): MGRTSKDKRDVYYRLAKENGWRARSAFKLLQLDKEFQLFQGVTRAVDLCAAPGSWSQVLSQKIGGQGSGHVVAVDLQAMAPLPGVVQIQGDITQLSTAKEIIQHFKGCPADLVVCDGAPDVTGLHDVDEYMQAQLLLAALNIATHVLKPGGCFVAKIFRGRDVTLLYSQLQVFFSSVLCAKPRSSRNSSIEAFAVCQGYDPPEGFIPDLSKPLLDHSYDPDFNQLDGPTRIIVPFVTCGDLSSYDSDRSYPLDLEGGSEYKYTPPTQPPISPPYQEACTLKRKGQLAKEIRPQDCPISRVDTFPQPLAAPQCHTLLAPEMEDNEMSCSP
Chain of UniProt Q6UXV4 (Q6UXV4 whole entry): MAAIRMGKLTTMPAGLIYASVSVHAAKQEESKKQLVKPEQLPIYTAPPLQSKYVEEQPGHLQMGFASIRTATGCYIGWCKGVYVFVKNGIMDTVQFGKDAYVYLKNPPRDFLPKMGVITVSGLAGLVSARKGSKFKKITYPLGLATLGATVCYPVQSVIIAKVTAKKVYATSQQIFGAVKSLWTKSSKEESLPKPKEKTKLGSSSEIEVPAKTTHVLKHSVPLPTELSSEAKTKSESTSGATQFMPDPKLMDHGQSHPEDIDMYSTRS
Chain of UniProt Q96E29 (Q96E29 whole entry): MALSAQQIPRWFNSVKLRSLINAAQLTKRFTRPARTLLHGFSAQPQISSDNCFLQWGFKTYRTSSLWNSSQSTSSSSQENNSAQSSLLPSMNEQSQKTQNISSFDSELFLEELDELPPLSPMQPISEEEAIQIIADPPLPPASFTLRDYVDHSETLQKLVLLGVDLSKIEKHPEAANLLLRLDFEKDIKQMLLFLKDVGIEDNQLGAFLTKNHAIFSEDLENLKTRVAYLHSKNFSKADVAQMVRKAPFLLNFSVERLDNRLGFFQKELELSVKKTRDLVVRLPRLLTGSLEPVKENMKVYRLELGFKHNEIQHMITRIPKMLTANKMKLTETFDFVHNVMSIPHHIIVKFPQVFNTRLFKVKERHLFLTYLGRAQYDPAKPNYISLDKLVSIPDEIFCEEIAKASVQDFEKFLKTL
Chain of UniProt Q7L0Y3 (Q7L0Y3 whole entry): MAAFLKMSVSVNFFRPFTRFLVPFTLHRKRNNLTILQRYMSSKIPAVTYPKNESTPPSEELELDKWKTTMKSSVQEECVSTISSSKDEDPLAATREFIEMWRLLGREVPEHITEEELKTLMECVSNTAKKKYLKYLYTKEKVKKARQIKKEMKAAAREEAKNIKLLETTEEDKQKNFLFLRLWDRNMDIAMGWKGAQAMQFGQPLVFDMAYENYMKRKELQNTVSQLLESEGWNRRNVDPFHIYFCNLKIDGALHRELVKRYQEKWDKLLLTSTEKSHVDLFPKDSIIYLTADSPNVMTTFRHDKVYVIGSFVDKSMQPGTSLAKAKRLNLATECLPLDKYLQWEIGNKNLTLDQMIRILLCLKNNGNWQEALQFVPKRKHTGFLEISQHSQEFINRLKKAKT
Chain of UniProt P09012 (P09012 whole entry): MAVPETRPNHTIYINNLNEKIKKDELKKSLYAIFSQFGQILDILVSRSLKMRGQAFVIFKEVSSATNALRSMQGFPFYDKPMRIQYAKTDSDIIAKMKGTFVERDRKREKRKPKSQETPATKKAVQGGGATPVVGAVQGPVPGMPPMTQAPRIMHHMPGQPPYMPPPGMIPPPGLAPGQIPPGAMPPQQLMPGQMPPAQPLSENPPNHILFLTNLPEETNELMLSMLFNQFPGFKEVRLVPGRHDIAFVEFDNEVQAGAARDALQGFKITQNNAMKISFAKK
Chain of UniProt P50336 (P50336 whole entry): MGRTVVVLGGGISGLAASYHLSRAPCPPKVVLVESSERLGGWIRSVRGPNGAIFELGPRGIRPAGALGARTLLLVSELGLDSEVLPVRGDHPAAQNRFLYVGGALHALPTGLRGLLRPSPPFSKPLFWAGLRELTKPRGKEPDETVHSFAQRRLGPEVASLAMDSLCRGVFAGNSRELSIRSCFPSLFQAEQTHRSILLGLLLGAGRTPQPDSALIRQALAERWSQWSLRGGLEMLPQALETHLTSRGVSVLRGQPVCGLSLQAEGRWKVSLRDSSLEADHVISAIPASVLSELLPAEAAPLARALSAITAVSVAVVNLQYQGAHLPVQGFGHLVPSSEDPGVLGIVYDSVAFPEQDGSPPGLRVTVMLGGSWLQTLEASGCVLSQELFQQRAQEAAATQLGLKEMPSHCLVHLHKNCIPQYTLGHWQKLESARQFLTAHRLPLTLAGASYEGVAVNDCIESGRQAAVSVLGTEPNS
Chain of UniProt O75414 (O75414 whole entry): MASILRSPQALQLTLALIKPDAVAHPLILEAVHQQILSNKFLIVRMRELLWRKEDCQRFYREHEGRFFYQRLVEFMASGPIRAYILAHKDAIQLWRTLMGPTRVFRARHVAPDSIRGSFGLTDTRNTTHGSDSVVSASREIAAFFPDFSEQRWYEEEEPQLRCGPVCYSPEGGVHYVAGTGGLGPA
Chain of UniProt O95831 (O95831 whole entry): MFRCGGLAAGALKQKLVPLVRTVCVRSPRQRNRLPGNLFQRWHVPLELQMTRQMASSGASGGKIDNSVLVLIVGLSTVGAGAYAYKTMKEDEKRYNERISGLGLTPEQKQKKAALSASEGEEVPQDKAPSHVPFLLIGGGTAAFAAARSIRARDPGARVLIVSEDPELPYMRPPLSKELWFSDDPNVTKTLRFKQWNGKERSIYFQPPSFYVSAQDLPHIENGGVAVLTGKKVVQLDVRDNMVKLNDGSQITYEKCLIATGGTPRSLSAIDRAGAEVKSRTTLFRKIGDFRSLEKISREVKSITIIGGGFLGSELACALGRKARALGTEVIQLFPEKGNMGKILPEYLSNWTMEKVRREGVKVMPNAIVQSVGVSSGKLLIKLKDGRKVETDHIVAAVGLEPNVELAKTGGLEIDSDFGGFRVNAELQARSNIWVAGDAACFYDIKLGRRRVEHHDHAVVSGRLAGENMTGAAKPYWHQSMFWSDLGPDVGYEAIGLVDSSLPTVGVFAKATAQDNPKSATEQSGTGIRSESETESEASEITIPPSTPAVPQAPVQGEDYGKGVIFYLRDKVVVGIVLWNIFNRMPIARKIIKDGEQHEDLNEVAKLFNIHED

Target	thermal stability z-score [1, 3]	thermal stability z-score ([1]; arsenate co-treatment: none)	thermal stability z-score [2]
TRIP13 (UniProt Q15645)	-0.215	-0.735	-0.184
SNCA (UniProt P37840)	0.553	0.198	-0.263
POLE4 (UniProt Q9NR33)	0.919	0.928	-1.07
PDAP1 (UniProt Q13442)	0.179	0.298	-0.0329
DDRGK1 (UniProt Q96HY6)	-1.17	-0.728	0.397
BCAP31 (UniProt P51572)	0.0788	0.099	-0.144
SNRPA (UniProt P09012)	0.0421	-0.126	0.938
ACTL6A (UniProt O96019)	2.1	0.96	-0.336
NDUFB5 (UniProt O43674)	-0.958	-0.151	0.226
NHS (UniProt Q6T4R5)	-0.604	0.0609	-0.851
SRM (UniProt P19623)	-0.392	-0.0266	-0.141
PLOD3 (UniProt O60568)	-5.29	-4.8	0.333
TRMT10C (UniProt Q7L0Y3)	-0.602	-0.191	0.226
CRIM1 (UniProt Q9NZV1)	-2.84	-1.95	-2.04
ITPK1 (UniProt Q13572)	-0.0201	0.179	-0.31
SMARCA5 (UniProt O60264)	0.76	1.44	-0.922
CHURC1 (UniProt Q8WUH1)	-0.539	-0.988	-0.122
ADA (UniProt P00813)	0.792	0.403	-0.000857
ARHGAP35 (UniProt Q9NRY4)	-0.512	-0.145	0.128
PPOX (UniProt P50336)	0.085	0.352	0.154
RPS6 (UniProt P62753)	1.06	0.834	-0.404
MOCS2	0.00471	0.303	-0.289
SLC25A20 (UniProt O43772)	2.62	0.0858	-0.0934
AIFM1 (UniProt O95831)	-0.464	-0.558	0.186

Target	thermal stability z-score [1, 3]	thermal stability z-score ([1]; arsenate co-treatment: none)	thermal stability z-score [2]
KCTD12 (UniProt Q96CX2)	0.867	0.7	1.37
SMN1 (UniProt Q16637)	0.304	0.798	-0.434
RPLP1 (UniProt P05386)	1.44	0.753	0.00244
PRSS21 (UniProt Q9Y6M0)	-3	-2.45	1.03
ATF6 (UniProt P18850)	-0.0284	-0.0127	-0.177
NEK9 (UniProt Q8TD19)	-0.25	-0.366	0.719
UBR3 (UniProt Q6ZT12)	0.0839	0.139	-0.007
CALR (UniProt P27797)	-4.25	-3.48	0.147
PTEN (UniProt P60484)	-0.0735	-0.0591	-0.185
RPS10 (UniProt P46783)	0.895	0.406	-0.422
DDAH2 (UniProt O95865)	0.838	0.743	0.22
CLCN3 (UniProt P51790)	-0.368	-0.225	-0.374
DNAH1 (UniProt Q9P2D7)	-0.00768	0.171	0.0212
PIK3CA (UniProt P42336)	-0.275	-0.149	-0.45
SMC5 (UniProt Q8IY18)	0.427	-0.175	1.83
UBQLN4 (UniProt Q9NRR5)	1.81	1.78	0.334
SUCLA2 (UniProt Q9P2R7)	0.0341	0.0719	-0.411
NSFL1C (UniProt Q9UNZ2)	0.605	0.41	1.21
CTNNBL1 (UniProt Q8WYA6)	-0.0207	0.00313	-0.00699
APOOL (UniProt Q6UXV4)	0.908	0.782	0.748
FERMT2 (UniProt Q96AC1)	0.0975	-0.153	0.203
MDN1 (UniProt Q9NU22)	0.0494	0.0439	0.0865
RPL34 (UniProt P49207)	0.331	0.134	-1.17
SLC11A2 (UniProt P49281)	-1.6	-0.179	0.512

Target	thermal stability z-score [1, 3]	thermal stability z-score ([1]; arsenate co-treatment: none)	thermal stability z-score [2]
FTSJ1 (UniProt Q9UET6)	-0.787	-0.171	-0.793
WDR61 (UniProt Q9GZS3)	0.936	0.285	-0.236
GMPS (UniProt P49915)	-0.853	-0.447	-0.42
TLN1 (UniProt Q9Y490)	0.266	0.266	-0.682
HECTD3 (UniProt Q5T447)	-0.331	-0.0311	0.272
HNRNPDL (UniProt O14979)	0.895	0.34	-1.85
FKBP4 (UniProt Q02790)	0.198	0.244	0.191
MTO1 (UniProt Q9Y2Z2)	0.544	0.263	1.97
SERPINB8 (UniProt P50452)	0.899	0.458	-1.08
HNRNPLL|HNRPLL	-0.126	-0.082	-0.917
PGM2 (UniProt Q96G03)	-0.0134	-0.155	-0.24
COX15 (UniProt Q7KZN9)	-0.206	-0.206	0.257
NME6 (UniProt O75414)	0.102	0.493	0.083
SEC22A (UniProt Q96IW7)	0.0383	-0.0317	0.684
UBE2G1 (UniProt P62253)	0.288	0.286	0.0592
TXNL1 (UniProt O43396)	-0.206	-0.576	7
IGF2BP3 (UniProt O00425)	-0.521	-0.325	-0.579
RPP25 (UniProt Q9BUL9)	-0.534	-0.856	-1.34
COG7 (UniProt P83436)	-0.825	-0.928	0.224
PARD3 (UniProt Q8TEW0)	0.02	0.0237	-0.00597
MRI1 (UniProt Q9BV20)	0.156	0.0639	-0.37
TMEM209 (UniProt Q96SK2)	-0.644	0.109	1.25
MTERF3 (UniProt Q96E29)	-0.371	0.034	0.564
